Results on 27 compounds are retold here after patent US10004738B2, “Combination treatment comprising administration of 2-amino-3,5,5-trifluoro-3,4,5,6-tetrahydropyridines” (H. Lundbeck A/S, priority 2015, dated 2018).

The target in this assay is BACE1 enzyme (Homo sapiens (Human), UniProt P56817). As to the kind of experiment: BACE1 efficacy assay (FRET-based, commercial BACE1 kit). Particulars: test compound 10 μM, 3 nM enzyme, 250 nM substrate. In kind it is biochemical. The procedure: The efficacy assay was performed as a FRET-based assay using a commercially available BACE1 kit (Life Technologies, P2985). 2 μl test compound at 10 μM (final concentration) and 15 μl BACE1 enzyme from the kit (final concentration 3 nM) were preincubated for 15 minutes at room temperature before addition of 15 μl of substrate from the kit (250 nM final concentration) and incubated for additional 90 minutes at room temperature. The assay plate was subsequently read in a Pherastar (Ex540/Em590). […] The efficacy of the test compounds was evaluated at 10 μM (final concentration) and defined as the percent inhibition of the enzyme activity using the equation % inhibition=100%−normalized enzyme activity in percent.
Sequence of BACE1 enzyme (P56817 46-501): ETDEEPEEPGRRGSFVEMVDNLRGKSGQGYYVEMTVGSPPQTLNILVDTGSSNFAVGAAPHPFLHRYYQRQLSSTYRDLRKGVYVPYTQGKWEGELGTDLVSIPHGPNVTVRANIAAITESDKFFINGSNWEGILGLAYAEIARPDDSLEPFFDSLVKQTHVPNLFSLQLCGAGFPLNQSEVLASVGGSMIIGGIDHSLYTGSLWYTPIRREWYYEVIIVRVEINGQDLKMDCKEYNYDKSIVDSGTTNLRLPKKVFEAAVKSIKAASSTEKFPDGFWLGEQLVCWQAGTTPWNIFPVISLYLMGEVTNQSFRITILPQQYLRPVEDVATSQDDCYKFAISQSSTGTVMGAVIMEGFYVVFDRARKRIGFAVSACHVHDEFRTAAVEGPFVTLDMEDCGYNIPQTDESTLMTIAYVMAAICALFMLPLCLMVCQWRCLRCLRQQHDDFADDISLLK
On to `C[C@@]1(F)CC(F)(F)[C@@](C)(c2cc(NC(=O)c3ccc(F)cn3)ccc2F)N=C1N` [Compound 2, N-(3-((2R,5R)-6-amino-3,3,5-trifluoro-2,5-dimethyl-2,3,4,5-tetrahydropyridin-2-yl)-4-fluorophenyl)-5-fluoropicolinamide], for which the inhibition (in general, the relative decrease from the control value, in per cent) at 10 µM worked out at 100%.
Regarding `C[C@]1(F)CC(F)(F)[C@@](C)(c2cc(NC(=O)c3ccc(Cl)cn3)ccc2F)N=C1N` [Compound 3, N-(3-((2R,5S)-6-amino-3,3,5-trifluoro-2,5-dimethyl-2,3,4,5-tetrahydropyridin-2-yl)-4-fluorophenyl)-5-chloropicolinamide], the inhibition at 10 µM was 102%.
`C[C@]1(F)CC(F)(F)[C@@](C)(c2cc(NC(=O)c3ccc(C#N)cn3)ccc2F)N=C1N` [Compound 4, N-(3-((2R,5S)-6-amino-3,3,5-trifluoro-2,5-dimethyl-2,3,4,5-tetrahydropyridin-2-yl)-4-fluorophenyl)-5-cyanopicolinamide]: the inhibition at 10 µM turned out to be 99%.
For `C[C@]1(F)CC(F)(F)[C@@](C)(c2cc(NC(=O)c3ccn(C(F)F)n3)ccc2F)N=C1N` [Compound 6, N-(3-((2R,5S)-6-amino-3,3,5-trifluoro-2,5-dimethyl-2,3,4,5-tetrahydropyridin-2-yl)-4-fluorophenyl)-1-(difluoromethyl)-1H-pyrazole-3-carboxamide], the inhibition at 10 µM was found to be 100%.
Turning to `Cc1nc(C(=O)Nc2ccc(F)c([C@@]3(C)N=C(N)[C@@](C)(F)CC3(F)F)c2)co1` [Compound 7, N-(3-((2R,5S)-6-amino-3,3,5-trifluoro-2,5-dimethyl-2,3,4,5-tetrahydropyridin-2-yl)-4-fluorophenyl)-2-methyloxazole-4-carboxamide], the inhibition at 10 µM came to 100%.
For `C[C@]1(F)CC(F)(F)[C@@](C)(c2cc(NC(=O)c3nccs3)ccc2F)N=C1N` [Compound 8, N-(3-((2R,5S)-6-amino-3,3,5-trifluoro-2,5-dimethyl-2,3,4,5-tetrahydropyridin-2-yl)-4-fluorophenyl)thiazole-2-carboxamide] the value was 104%; for `Cn1cc(Br)nc1C(=O)Nc1ccc(F)c([C@@]2(C)N=C(N)[C@@](C)(F)CC2(F)F)c1` [Compound 9, N-(3-((2R,5S)-6-amino-3,3,5-trifluoro-2,5-dimethyl-2,3,4,5-tetrahydropyridin-2-yl)-4-fluorophenyl)-4-bromo-1-methyl-1H-imidazole-2-carboxamide], 103%; for `Cc1csc(C(=O)Nc2ccc(F)c([C@@]3(C)N=C(N)[C@@](C)(F)CC3(F)F)c2)n1` [Compound 10, N-(3-((2R,5S)-6-amino-3,3,5-trifluoro-2,5-dimethyl-2,3,4,5-tetrahydropyridin-2-yl)-4-fluorophenyl)-4-methylthiazole-2-carboxamide], 102%.
In the case of `C[C@]1(F)CC(F)(F)[C@@](C)(c2cc(NC(=O)c3ccc(C(F)(F)F)cn3)ccc2F)N=C1N` [Compound 11, N-(3-((2R,5S)-6-amino-3,3,5-trifluoro-2,5-dimethyl-2,3,4,5-tetrahydropyridin-2-yl)-4-fluorophenyl)-5-(trifluoromethyl)picolinamide] it was 99%; in that of `COc1cnc(C(=O)Nc2ccc(F)c([C@@]3(C)N=C(N)[C@@](C)(F)CC3(F)F)c2)nc1` [Compound 12, N-(3-((2R,5S)-6-amino-3,3,5-trifluoro-2,5-dimethyl-2,3,4,5-tetrahydropyridin-2-yl)-4-fluorophenyl)-5-methoxpyrimidine-2-carboxamide], 104%; in that of `C[C@]1(F)CC(F)(F)[C@@](C)(c2cc(NC(=O)c3coc(C(F)F)n3)ccc2F)N=C1N` [Compound 13, N-(3-((2R,5S)-6-amino-3,3,5-trifluoro-2,5-dimethyl-2,3,4,5-tetrahydropyridin-2-yl)-4-fluorophenyl)-2-(difluoromethyl)oxazole-4-carboxamide], 99%.
For `C[C@]1(F)CC(F)(F)[C@@](C)(c2cc(NC(=O)c3nc(CF)co3)ccc2F)N=C1N` [Compound 14, N-(3-((2R,5S)-6-amino-3,3,5-trifluoro-2,5-dimethyl-2,3,4,5-tetrahydropyridin-2-yl)-4-fluorophenyl)-4-(fluoromethyl)oxazole-2-carboxamide] the value was 102%; for `C[C@]1(F)CC(F)(F)[C@@](C)(c2cc(NC(=O)c3nc(CF)cs3)ccc2F)N=C1N` [Compound 15, N-(3-((2R,5S)-6-amino-3,3,5-trifluoro-2,5-dimethyl-2,3,4,5-tetrahydropyridin-2-yl)-4-fluorophenyl)-4-(fluoromethyl)thiazole-2-carboxamide], 101%; for `C[C@]1(F)CC(F)(F)[C@@](C)(c2cc(NC(=O)c3cnc(C(F)F)cn3)ccc2F)N=C1N` [Compound 16, N-(3-((2R,5S)-6-amino-3,3,5-trifluoro-2,5-dimethyl-2,3,4,5-tetrahydropyridin-2-yl)-4-fluorophenyl)-5-(difluoromethyl)pyrazine-2-carboxamide], 105%.
For the compound `COc1cnc(C(=O)Nc2ccc(F)c([C@@]3(C)N=C(N)[C@@](C)(F)CC3(F)F)c2)c(C)n1` [Compound 19, N-(3-((2R,5S)-6-amino-3,3,5-trifluoro-2,5-dimethyl-2,3,4,5-tetrahydropyridin-2-yl)-4-fluorophenyl)-5-methoxy-3-methylpyrazine-2-carboxamide], the inhibition at 10 µM came out at 98%.
Consider `Cc1nnc(C(=O)Nc2ccc(F)c([C@@]3(C)N=C(N)[C@@](C)(F)CC3(F)F)c2)o1` [Compound 20, N-(3-((2R,5S)-6-amino-3,3,5-trifluoro-2,5-dimethyl-2,3,4,5-tetrahydropyridin-2-yl)-4-fluorophenyl)-5-methyl-1,3,4-oxadiazole-2-carboxamide], for which the inhibition at 10 µM came out at 88%.
Turning to `Cc1noc(C(=O)Nc2ccc(F)c([C@@]3(C)N=C(N)[C@@](C)(F)CC3(F)F)c2)n1` [Compound 21, N-(3-((2R,5S)-6-amino-3,3,5-trifluoro-2,5-dimethyl-2,3,4,5-tetrahydropyridin-2-yl)-4-fluorophenyl)-3-methyl-1,2,4-oxadiazole-5-carboxamide], the inhibition at 10 µM came out at 102%.
For `Cn1cnc(C(=O)Nc2ccc(F)c([C@@]3(C)N=C(N)[C@@](C)(F)CC3(F)F)c2)n1` [Compound 22, N-(3-((2R,5S)-6-amino-3,3,5-trifluoro-2,5-dimethyl-2,3,4,5-tetrahydropyridin-2-yl)-4-fluorophenyl)-1-methyl-1H-1,2,4-triazole-3-carboxamide] the value was 92%; for `C[C@@]1(F)CC(F)(F)[C@@](C)(c2cc(NC(=O)c3ccn(C(F)F)n3)ccc2F)N=C1N` [Compound 23, N-(3-((2R,5R)-6-amino-3,3,5-trifluoro-2,5-dimethyl-2,3,4,5-tetrahydropyridin-2-yl)-4-fluorophenyl)-1-(difluoromethyl)-1H-pyrazole-3-carboxamide], 102%; for `COc1cnc(C(=O)Nc2ccc(F)c([C@@]3(C)N=C(N)[C@](C)(F)CC3(F)F)c2)cn1` [Compound 25, N-(3-((2R,5R)-6-amino-3,3,5-trifluoro-2,5-dimethyl-2,3,4,5-tetrahydropyridin-2-yl)-4-fluorophenyl)-5-methoxypyrazine-2-carboxamide], 102%.
In the case of `COc1cnc(C(=O)Nc2ccc(F)c([C@@]3(C)N=C(N)[C@](C)(F)CC3(F)F)c2)nc1` [Compound 26, N-(3-((2R,5R)-6-amino-3,3,5-trifluoro-2,5-dimethyl-2,3,4,5-tetrahydropyridin-2-yl)-4-fluorophenyl)-5-methoxypyrimidine-2-carboxamide] it was 102%.
For `Cc1csc(C(=O)Nc2ccc(F)c([C@@]3(C)N=C(N)[C@](C)(F)CC3(F)F)c2)n1` [Compound 27, N-(3-((2R,5R)-6-amino-3,3,5-trifluoro-2,5-dimethyl-2,3,4,5-tetrahydropyridin-2-yl)-4-fluorophenyl)-4-methylthiazole-2-carboxamide] the value was 98%; for `C[C@@]1(F)CC(F)(F)[C@@](C)(c2cc(NC(=O)c3ccc(C(F)(F)F)cn3)ccc2F)N=C1N` [Compound 28, N-(3-((2R,5R)-6-amino-3,3,5-trifluoro-2,5-dimethyl-2,3,4,5-tetrahydropyridin-2-yl)-4-fluorophenyl)-5-(trifluoromethyl)picolinamide], 102%; for `C[C@@]1(F)CC(F)(F)[C@@](C)(c2cc(NC(=O)c3coc(C(F)F)n3)ccc2F)N=C1N` [Compound 29, N-(3-((2R,5R)-6-amino-3,3,5-trifluoro-2,5-dimethyl-2,3,4,5-tetrahydropyridin-2-yl)-4-fluorophenyl)-2-(difluoromethyl)oxazole-4-carboxamide], 101%.
Take `C[C@@]1(F)CC(F)(F)[C@@](C)(c2cc(NC(=O)c3nc(CF)co3)ccc2F)N=C1N` [Compound 30, N-(3-((2R,5R)-6-amino-3,3,5-trifluoro-2,5-dimethyl-2,3,4,5-tetrahydropyridin-2-yl)-4-fluorophenyl)-4-(fluoromethyl)oxazole-2-carboxamide]: the inhibition at 10 µM turned out to be 103%.
In the case of `C[C@@]1(F)CC(F)(F)[C@@](C)(c2cc(NC(=O)c3nc(CF)cs3)ccc2F)N=C1N` [Compound 31, N-(3-((2R,5R)-6-amino-3,3,5-trifluoro-2,5-dimethyl-2,3,4,5-tetrahydropyridin-2-yl)-4-fluorophenyl)-4-(fluoromethyl)thiazole-2-carboxamide] it was 102%; in that of `C[C@@]1(F)CC(F)(F)[C@@](C)(c2cc(NC(=O)c3ccc(C#N)cn3)ccc2F)N=C1N` [Compound 32, N-(3-((2R,5R)-6-amino-3,3,5-trifluoro-2,5-dimethyl-2,3,4,5-tetrahydropyridin-2-yl)-4-fluorophenyl)-5-cyanopicolinamide], 101%.
